From patent US20160145247A1, “Aminomethyl-Biaryl Derivatives Complement Factor D inhibitors and uses thereof” (NOVARTIS AG, priority 2013, published 2016)

Biological target: T1, factor D (Homo sapiens, UniProt P00746)
T1 construct: made in house; host or cells: E. coli
Experiment: factor D inhibition assay of Biological Example 2
Assay type: biochemical

T1 sequence (P00746 26-253): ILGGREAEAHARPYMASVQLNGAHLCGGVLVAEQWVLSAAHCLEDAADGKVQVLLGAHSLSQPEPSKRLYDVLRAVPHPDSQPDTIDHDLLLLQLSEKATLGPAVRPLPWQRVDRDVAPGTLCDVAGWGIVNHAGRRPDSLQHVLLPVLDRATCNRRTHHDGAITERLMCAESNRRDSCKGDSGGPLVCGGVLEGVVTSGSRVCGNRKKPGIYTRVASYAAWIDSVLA

IC50 | SMILES
0.013 µM | C[C@@H](N)c1cccc(-c2cc(COc3ccccc3CC(=O)O)cc(C3CCCCC3)c2)c1F [Example 243-D, (R)-2-(2-((3′-(1-aminoethyl)-5-cyclohexyl-2′-fluoro-[1,1′-biphenyl]-3-yl)methoxy)phenyl)acetic acid]
0.003 µM | C[C@@H](N)c1cccc(-c2cc(COc3ccccc3CC(=O)O)cc(C3CCCC3)c2)c1F [Example 244, (R)-2-(2-((3′-(1-aminoethyl)-5-cyclopentyl-2′-fluoro-[1,1′-biphenyl]-3-yl)methoxy)phenyl)acetic acid]
0.009 µM | C[C@@H](N)c1cccc(-c2cc(COc3ccccc3CC(=O)O)cc(N(C)CC3CC3)c2)c1F [Example 245, (R)-2-(2-((3′-(1-aminoethyl)-5-((cyclopropylmethyl)(methyl)amino)-2′-fluoro-[1,1′-biphenyl]-3-yl)methoxy)phenyl)acetic acid]
< 0.001 µM | C[C@@H](N)c1cccc(-c2cc(COc3ccccc3CC(=O)O)cc(CC3CCOCC3)c2)c1F [Example 246-C, (R)-2-(2-((3′-(1-aminoethyl)-2′-fluoro-5-((tetrahydro-2H-pyran-4-yl)methyl)-[1,1′-biphenyl]-3-yl)methoxy)phenyl)acetic acid]
0.01 µM | C[C@@H](N)c1cccc(-c2cc(COc3ccccc3CC(=O)O)cc(N3CCC3)c2)c1F [Example 247, (R)-2-(2-((3′-(1-aminoethyl)-5-(azetidin-1-yl)-2′-fluoro-[1,1′-biphenyl]-3-yl)methoxy)phenyl)acetic acid]
0.14 µM | C[C@@H](N)c1cccc(-c2cc(CCC3CCOCC3)cc(COc3ccccc3CC(=O)O)c2)c1F [Example 248, (R)-2-(2-((3′-(1-aminoethyl)-2′-fluoro-5-(2-(tetrahydro-2H-pyran-4-yl)ethyl)-[1,1′-biphenyl]-3-yl)methoxy)phenyl)acetic acid]
26.9 µM | CCOC(=O)Cc1ccccc1OCc1cc(NC[C@H]2CCCO2)cc(-c2cccc([C@@H](C)N)c2F)c1 [Example 249, Ethyl 2-(2-((3′-((R)-1-aminoethyl)-2′-fluoro-5-((((R)-tetrahydrofuran-2-yl)methyl)amino)-[1,1′-biphenyl]-3-yl)methoxy)phenyl)acetate]
0.113 µM | C[C@@H](N)c1cccc(-c2cc(COc3ccccc3CC(=O)O)cc(S(C)(=O)=O)c2)c1F [Example 250-D, (R)-2-(2-((3′-(1-aminoethyl)-2′-fluoro-5-(methylsulfonyl)-[1,1′-biphenyl]-3-yl)methoxy)phenyl)acetic acid]
0.158 µM | C[C@@H](N)c1cccc(-c2cc(COc3ccccc3CC(=O)O)cc(S(C)(=O)=O)c2)c1 [Example 251, (R)-2-(2-((3′-(1-aminoethyl)-5-(methylsulfonyl)-[1,1′-biphenyl]-3-yl)methoxy)phenyl)acetic acid]
1.58 µM | C[C@H](N)c1cccc(-c2cc(COc3ccccc3CC(=O)O)cc(S(C)(=O)=O)c2)c1F [Example 252, (S)-2-(2-((3′-(1-aminoethyl)-2′-fluoro-5-(methylsulfonyl)-[1,1′-biphenyl]-3-yl)methoxy)phenyl)acetic acid]
0.013 µM | C[C@@H](N)c1cccc(-c2cc(COc3ccccc3CC(=O)O)c3c(c2)OCO3)c1F [Example 253-E, (R)-2-(2-((6-(3-(1-Aminoethyl)-2-fluorophenyl)benzo[d][1,3]dioxol-4-yl)methoxy)phenyl)acetic acid]
0.032 µM | C[C@@H](N)c1cccc(-c2cc(COc3ccccc3CC(=O)O)c3c(c2)OCO3)c1 [Example 254, (R)-2-(2-((6-(3-(1-aminoethyl)phenyl)benzo[d][1,3]dioxol-4-yl)methoxy)phenyl)acetic acid]
0.009 µM | N[C@H](CO)c1cccc(-c2cc(COc3ccccc3CC(=O)O)c3c(c2)OCO3)c1 [Example 255, (S)-2-(2-((6-(3-(1-amino-2-hydroxyethyl)phenyl)benzo[d][1,3]dioxol-4-yl)methoxy)phenyl)acetic acid]
0.003 µM | CCOc1cc(COc2ccccc2CC(=O)O)cc(-c2cccc([C@@H](C)N)c2F)c1 [Example 256-B, (R)-2-(2-((3′-(1-Aminoethyl)-5-ethoxy-2′-fluoro-[1,1′-biphenyl]-3-yl)methoxy)phenyl)acetic acid]
0.009 µM | CCOc1cc(COc2ccccc2CC(=O)O)cc(-c2cccc([C@@H](C)N)c2)c1 [Example 257, (R)-2-(2-((3′-(1-aminoethyl)-5-ethoxy-[1,1′-biphenyl]-3-yl)methoxy)phenyl)acetic acid]
0.011 µM | CCOc1cc(COc2ccccc2CC(=O)O)cc(-c2cccc(C(N)CF)c2F)c1 (centres unmarked) [Example 258-C, 2-(2-((3′-(1-amino-2-fluoroethyl)-5-ethoxy-2′-fluoro-[1,1′-biphenyl]-3-yl)methoxy)phenyl)acetic acid]
0.022 µM | C[C@@H](N)c1cccc(-c2cc(COc3ccccc3CC(=O)O)cc(OCC3(C)CC3)c2)c1F [Example 259-E, (R)-2-(2-((3′-(1-aminoethyl)-2′-fluoro-5-((1-methylcyclopropyl)methoxy)-[1,1′-biphenyl]-3-yl)methoxy)phenyl)acetic acid]
0.039 µM | C[C@H](N)c1cccc(-c2cc(COc3ccccc3CC(=O)O)cc(OCC3(C)CC3)c2)c1F [Example 260, (S)-2-(2-((3′-(1-aminoethyl)-2′-fluoro-5-((1-methylcyclopropyl)methoxy)-[1,1′-biphenyl]-3-yl)methoxy)phenyl)acetic acid]

IC50 | SMILES
0.024 µM | C[C@@H](N)c1cccc(-c2cc(COc3ccccc3CC(=O)O)cc(OCC3(C)CC3)c2)c1 [Example 261, (R)-2-(2-((3′-(1-aminoethyl)-5-((1-methylcyclopropyl)methoxy)-[1,1′-biphenyl]-3-yl)methoxy)phenyl)acetic acid]
0.041 µM | C[C@@H](N)c1cccc(-c2cc(COc3ccccc3CC(=O)O)cc(OCC3(C)COC3)c2)c1F [Example 262, (R)-2-(2-((3′-(1-aminoethyl)-2′-fluoro-5-((3-methyloxetan-3-yl)methoxy)-[1,1′-biphenyl]-3-yl)methoxy)phenyl)acetic acid]
0.014 µM | C[C@@H](N)c1cccc(-c2cc(COc3ccccc3CC(=O)O)cc(OCC3(C)COC3)c2)c1 [Example 263, (R)-2-(2-((3′-(1-aminoethyl)-5-((3-methyloxetan-3-yl)methoxy)-[1,1′-biphenyl]-3-yl)methoxy)phenyl)acetic acid]
0.015 µM | C[C@@H](N)c1cccc(-c2cc(COc3ccccc3CC(=O)O)cc(OCC3CCCCO3)c2)c1F (stereo partly drawn) [Example 264, 2-(2-((3′-((R)-1-aminoethyl)-2′-fluoro-5-((tetrahydro-2H-pyran-2-yl)methoxy)-[1,1′-biphenyl]-3-yl)methoxy)phenyl)acetic acid]
0.007 µM | C[C@@H](N)c1cccc(-c2cc(COc3ccccc3CC(=O)O)cc(OCC3CCCCO3)c2)c1 (stereo partly drawn) [Example 265, 2-(2-((3′-((R)-1-aminoethyl)-5-((tetrahydro-2H-pyran-2-yl)methoxy)-[1,1′-biphenyl]-3-yl)methoxy)phenyl)acetic acid]
0.034 µM | C[C@@H](N)c1cccc(-c2cc(COc3ccccc3CC(=O)O)cc(OCC3CCCN3)c2)c1F (stereo partly drawn) [Example 266, 2-(2-((3′-((R)-1-aminoethyl)-2′-fluoro-5-(pyrrolidin-2-ylmethoxy)-[1,1′-biphenyl]-3-yl)methoxy)phenyl)acetic acid]
0.039 µM | C[C@@H](N)c1cccc(-c2cc(COc3ccccc3CC(=O)O)cc(OCC3CCCN3)c2)c1 (stereo partly drawn) [Example 267, 2-(2-((3′-((R)-1-aminoethyl)-5-(pyrrolidin-2-ylmethoxy)-[1,1′-biphenyl]-3-yl)methoxy)phenyl)acetic acid]
54.8 µM | CCOC(=O)Cc1ccccc1OCc1cccc(-c2cccc([C@H](N)CO)c2)c1 [Example 268-C, (S)-Ethyl 2-(2-((3′-(1-amino-2-hydroxyethyl)-[1,1′-biphenyl]-3-yl)methoxy)phenyl)acetate]
0.009 µM | C[C@@H](N)c1cccc(-c2cc(CCCF)cc(COc3ccccc3CC(=O)O)c2)c1F [Example 269-E, (R)-2-(2-((3′-(1-aminoethyl)-2′-fluoro-5-(3-fluoropropyl)-[1,1′-biphenyl]-3-yl)methoxy)phenyl)acetic acid]
0.011 µM | C[C@H](N)c1cccc(-c2cc(CCCF)cc(COc3ccccc3CC(=O)O)c2)c1F [Example 270, (S)-2-(2-((3′-(1-aminoethyl)-2′-fluoro-5-(3-fluoropropyl)-[1,1′-biphenyl]-3-yl)methoxy)phenyl)acetic acid]
0.01 µM | C[C@@H](N)c1cccc(-c2cc(CCCF)cc(COc3ccccc3CC(=O)O)c2)c1 [Example 271, (R)-2-(2-((3′-(1-aminoethyl)-5-(3-fluoropropyl)-[1,1′-biphenyl]-3-yl)methoxy)phenyl)acetic acid]
0.01 µM | N[C@H](CO)c1cccc(-c2cc(CCCF)cc(COc3ccccc3CC(=O)O)c2)c1 [Example 272, (S)-2-(2-((3′-(1-amino-2-hydroxyethyl)-5-(3-fluoropropyl)-[1,1′-biphenyl]-3-yl)methoxy)phenyl)acetic acid]
0.014 µM | Cc1ccc(-c2cccc([C@@H](C)N)c2F)cc1COc1ccccc1CC(=O)O [Example 273-B, (R)-2-(2-((3′-(1-aminoethyl)-2′-fluoro-4-methyl-[1,1′-biphenyl]-3-yl)methoxy)phenyl)acetic acid]
0.34 µM | Cc1ccc(-c2cccc([C@H](C)N)c2F)cc1COc1ccccc1CC(=O)O [Example 274, (S)-2-(2-((3′-(1-aminoethyl)-2′-fluoro-4-methyl-[1,1′-biphenyl]-3-yl)methoxy)phenyl)acetic acid]
0.013 µM | C[C@@H](N)c1cccc(-c2ccc(Cl)c(COc3ccccc3CC(=O)O)c2)c1F [Example 275, (R)-2-(2-((3′-(1-aminoethyl)-4-chloro-2′-fluoro-[1,1′-biphenyl]-3-yl)methoxy)phenyl)acetic acid]
0.16 µM | COc1ccc(-c2cccc([C@@H](C)N)c2F)cc1COc1ccccc1CC(=O)O [Example 276, (R)-2-(2-((3′-(1-aminoethyl)-2′-fluoro-4-methoxy-[1,1′-biphenyl]-3-yl)methoxy)phenyl)acetic acid]
0.19 µM | N[C@H](CO)c1cc(Cl)cc(-c2cccc(COc3ccccc3CC(=O)O)c2)c1 [Example 277-C, (S)-2-(2-((3′-(1-Amino-2-hydroxyethyl)-5′-chloro-[1,1′-biphenyl]-3-yl)methoxy)phenyl)acetic acid]
